These results are taken from patent US8420657B2 (Novartis AG, priority 2008, dated 2013).

Molecules are shown by their SMILES.

The test deals with T1, GST-JAK2(808-1132) (Homo sapiens, UniProt O60674).
T1 construct: GST-JAK2(808-1132); purchased Invitrogen (Carlsbad, USA) #4288
T1 sequence (O60674 808-1132): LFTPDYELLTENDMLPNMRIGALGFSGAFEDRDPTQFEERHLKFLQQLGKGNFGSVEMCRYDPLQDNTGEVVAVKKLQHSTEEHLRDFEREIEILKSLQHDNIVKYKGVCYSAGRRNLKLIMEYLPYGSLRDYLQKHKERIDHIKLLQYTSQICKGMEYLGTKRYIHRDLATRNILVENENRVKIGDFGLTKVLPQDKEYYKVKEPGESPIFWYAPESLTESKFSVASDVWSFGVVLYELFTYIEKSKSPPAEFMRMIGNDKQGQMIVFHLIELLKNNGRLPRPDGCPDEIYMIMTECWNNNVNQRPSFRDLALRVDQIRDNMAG
Kind of test: JAK2 kinase assay (Caliper mobility shift, LabChip 3000). It is filed as biochemical. The method in brief:
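Eight-point compound series (final 10–0.003 μM) tested on purchased GST-JAK2 kinase domain (808-1132). Peptide FITC-JAK3tide plus ATP reacted 60 min, 30 °C, then quenched with EDTA; turnover from charge-based separation of substrate and product.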
For `CCN1CCN(Cc2ccc(Nc3ncc4ccn(-c5cc(F)c(CN6CCOCC6)c(F)c5)c4n3)nc2)CC1` [Example 316, [7-(3,5-Difluoro-4-morpholin-4-ylmethyl-phenyl)-7H-pyrrolo[2,3-d]pyrimidin-2-yl]-[5-(4-ethyl-piperazin-1-ylmethyl)-pyridin-2-yl]-amine], the IC50 (in general, the concentration at which inhibition is half-maximal) came to 73 nM.
Then `CCN1CCN(Cc2ccc(Nc3ncc4ccn(-c5ccc(S(C)(=O)=O)cc5)c4n3)nc2)CC1` [Example 317, [5-(4-Ethyl-piperazin-1-ylmethyl)-pyridin-2-yl]-[7-(4-methanesulfonyl-phenyl)-7H-pyrrolo[2,3-d]pyrimidin-2-yl]-amine], with 940 nM; and `CC(=O)N1CCN(Cc2ccc(Nc3ncc4ccn(-c5cc(F)c(CN6CCOCC6)c(F)c5)c4n3)cc2)CC1` [Example 318, 1-(4-{4-[7-(3,5-Difluoro-4-morpholin-4-ylmethyl-phenyl)-7H-pyrrolo[2,3-d]pyrimidin-2-ylamino]-benzyl}-piperazin-1-yl)-ethanone], with less than 3 nM; and `CC(=O)N1CCN(Cc2ccc(Nc3ncc4ccn(-c5ccc(S(C)(=O)=O)cc5)c4n3)cc2)CC1` [Example 319, 1-(4-{4-[7-(4-Methanesulfonyl-phenyl)-7H-pyrrolo[2,3-d]pyrimidin-2-ylamino]-benzyl}-piperazin-1-yl)-ethanone], with less than 3 nM.
Turning to `CC(C)(C)OC(=O)N1CCC(n2cc(Nc3ncc4ccn(-c5cc(F)c(CN6CCOCC6)c(F)c5)c4n3)cn2)CC1` [Example 320, 4-{4-[7-(3,5-Difluoro-4-morpholin-4-ylmethyl-phenyl)-7H-pyrrolo[2,3-d]pyrimidin-2-ylamino]-pyrazol-1-yl}-piperidine-1-carboxylic acid tert-butyl ester], the IC50 was found to be 9.5 nM.
Then `Fc1cc(-n2ccc3cnc(Nc4cnn(C5CCNCC5)c4)nc32)cc(F)c1CN1CCOCC1` [Example 321, [7-(3,5-Difluoro-4-morpholin-4-ylmethyl-phenyl)-7H-pyrrolo[2,3-d]pyrimidin-2-yl]-(1-piperidin-4-yl-1H-pyrazol-4-yl)-amine], with less than 3 nM.
Then `CC(=O)N1CCN(Cc2ccc(Nc3ncc4ccn(-c5ccc(C(=O)N6CCOCC6)c(F)c5)c4n3)cc2)CC1` [Example 322, 1-[4-(4-{7-[3-Fluoro-4-(morpholine-4-carbonyl)-phenyl]-7H-pyrrolo[2,3-d]pyrimidin-2-ylamino}-benzyl)-piperazin-1-yl]-ethanone], with less than 3 nM; and `CC(=O)N1CCN(Cc2ccc(Nc3ncc4ccn(-c5cc(F)c(C(=O)N6CCOCC6)c(F)c5)c4n3)cc2)CC1` [Example 323, 1-[4-(4-{7-[3,5-Difluoro-4-(morpholine-4-carbonyl)-phenyl]-7H-pyrrolo[2,3-d]pyrimidin-2-ylamino}-benzyl)-piperazin-1-yl]-ethanone], with 3.2 nM.
Then `Cc1ccc(Nc2ncc3ccn(-c4ccc(C(=O)N5CCOCC5)c(F)c4)c3n2)cc1` [Example 324, [2-Fluoro-4-(2-p-tolylamino-pyrrolo[2,3-d]pyrimidin-7-yl)-phenyl]-morpholin-4-yl-methanone], with 26 nM.
In the case of `Cc1ccc(Nc2ncc3ccn(-c4cc(F)c(CN5CCOCC5)c(F)c4)c3n2)cc1` [Example 325, [7-(3,5-Difluoro-4-morpholin-4-ylmethyl-phenyl)-7H-pyrrolo[2,3-d]pyrimidin-2-yl]-p-tolyl-amine], the IC50 was 25 nM.
For the compound `Cc1ccc(Nc2ncc3ccn(-c4ccc(C(=O)N5CCOCC5)c(F)c4)c3n2)cc1CN1CCN(C)CC1` [Example 326, (2-Fluoro-4-{2-[4-methyl-3-(4-methyl-piperazin-1-ylmethyl)-phenylamino]-pyrrolo[2,3-d]pyrimidin-7-yl}-phenyl)-morpholin-4-yl-methanone], the IC50 is less than 3 nM.
Then `Cc1ccc(Nc2ncc3ccn(-c4ccc(C(=O)N5CCOCC5)c(F)c4)c3n2)cc1CN1CCOCC1` [Example 327, {2-Fluoro-4-[2-(4-methyl-3-morpholin-4-ylmethyl-phenylamino)-pyrrolo[2,3-d]pyrimidin-7-yl]-phenyl}-morpholin-4-yl-methanone], with less than 3 nM; and `Cc1ccc(Nc2ncc3ccn(-c4ccc(S(C)(=O)=O)cc4)c3n2)cc1CN1CCOCC1` [Example 328, [7-(4-Methanesulfonyl-phenyl)-7H-pyrrolo[2,3-d]pyrimidin-2-yl]-(4-methyl-3-morpholin-4-ylmethyl-phenyl)-amine], with 16 nM; and `Fc1cc(-n2ccc3cnc(Nc4ccc(CN5CCN(C6CC6)CC5)cc4)nc32)cc(F)c1CN1CCOCC1` [Example 329, [4-(4-Cyclopropyl-piperazin-1-ylmethyl)-phenyl]-[7-(3,5-difluoro-4-morpholin-4-ylmethyl-phenyl)-7H-pyrrolo[2,3-d]pyrimidin-2-yl]-amine], with 4 nM.
As for `O=C(c1ccc(-n2ccc3cnc(Nc4ccc(CN5CCN(C6CC6)CC5)cc4)nc32)cc1F)N1CCOCC1` [Example 330, (4-{2-[4-(4-Cyclopropyl-piperazin-1-ylmethyl)-phenylamino]-pyrrolo[2,3-d]pyrimidin-7-yl}-2-fluoro-phenyl)-morpholin-4-yl-methanone], the IC50 worked out at 14 nM.
Then `CN1CCN(c2ccc(Nc3ncc4ccn(-c5cc(F)c(CN6CCNC(=O)C6)c(F)c5)c4n3)cc2)CC1` [Example 341, 4-(2,6-Difluoro-4-{2-[4-(4-methyl-piperazin-1-yl)-phenylamino]-pyrrolo[2,3-d]pyrimidin-7-yl}-benzyl)-piperazin-2-one], with not above 3 nM; and `Cc1ccc(Nc2ncc3ccn(-c4cc(F)c(CN5CCNC(=O)C5)c(F)c4)c3n2)cc1CN1CCOCC1` [Example 344, 4-{2,6-Difluoro-4-[2-(4-methyl-3-morpholin-4-ylmethyl-phenylamino)-pyrrolo[2,3-d]pyrimidin-7-yl]-benzyl}-piperazin-2-one], with not above 3 nM; and `CC(C)(C)NS(=O)(=O)c1ccc(-n2ccc3cnc(Nc4ccc(CN5CCN(C6CC6)CC5)cc4)nc32)cc1` [Example 345, N-tert-Butyl-4-{2-[4-(4-cyclopropyl-piperazin-1-ylmethyl)-phenylamino]-pyrrolo[2,3-d]pyrimidin-7-yl}-benzenesulfonamide], with 3.3 nM.
On to `CN1CCN(c2ccc(Nc3ncc4ccn(-c5ccc(S(=O)(=O)NC(C)(C)C)cc5)c4n3)cc2)CC1` [Example 348, N-tert-Butyl-4-{2-[4-(4-methyl-piperazin-1-yl)-phenylamino]-pyrrolo[2,3-d]pyrimidin-7-yl}-benzenesulfonamide], for which the IC50 was found to be 6.2 nM.
As for `CN1CCN(c2ccc(Nc3ncc4ccn(-c5ccc(S(N)(=O)=O)cc5)c4n3)cc2)CC1` [Example 349, 4-{2-[4-(4-Methyl-piperazin-1-yl)-phenylamino]-pyrrolo[2,3-d]pyrimidin-7-yl}-benzenesulfonamide], the IC50 worked out at 16 nM.
Take `Cc1ccc(Nc2ncc3ccn(-c4ccc(S(N)(=O)=O)cc4)c3n2)cc1CN1CCN(C)CC1` [Example 368, 4-{2-[4-Methyl-3-(4-methyl-piperazin-1-ylmethyl)-phenylamino]-pyrrolo[2,3-d]pyrimidin-7-yl}-benzenesulfonamide]: the IC50 was 3.2 nM.
